Here are results for two compounds from US7183265B2, “Powdery product comprising crystalline β-maltose monohydrate, its preparation, and uses” (priority 2001, dated 2007).

Holding throughout (assay type): physicochemical
One data set in a line: Hygroscopicity test. To be noted: 25° C., RH 75.2%. The protocol: An open aluminum cup containing a sample was placed in a desiccator, set at a RH of 75.2% (equilibrated with a saturated sodium chloride aqueous solution), kept at 25° C. for three days, and then weighted. Hygroscopicity was expressed with percentage (%) of the increased weight to the initial weight of the sample.

The nature of a further data set: Solidification test. The text has this: A sample in the aluminum cup, taken out after keeping three days in the above hygroscopicity test, was macroscopically observed. Solidification was judged from the appearance of the sample whether it was solidified or not by adsorbing moisture.
Data set [1] can be described thus: Crystallinity by powdery X-ray diffraction (method of Ruland). The protocol: Crystallinity of powder was measured by the method of Ruland (Acta Crystallographica, Vol. 14, p. 1180, 1961) based on a powdery X-ray diffraction pattern using “[…]”, an X-ray diffractometer (Cu, Kα-ray) commercialized by Rigaku Corp., Tokyo, Japan.
Data set [2] is described as follows: Preservation stability of the powder. The protocol: An open aluminum cup containing a sample was placed in a desiccator, set at a RH of 75.2% (equilibrated with a saturated sodium chloride aqueous solution), kept at 25° C. for three days, and then weighted. Hygroscopicity was expressed with percentage (%) of the increased weight to the initial weight of the sample. A sample in the aluminum cup, taken out after keeping three days in the above hygroscopicity test, was macroscopically observed. Solidification was judged from the appearance of the sample whether it was solidified or not by adsorbing moisture.

`OCC1OC(OC2C(CO)OC(O)C(O)C2O)C(O)C(O)C1O` (stereo not drawn) [No. 9, hydrous crystalline β-maltose, reference compound]: in “Hygroscopicity test”, the “hygroscopicity (in words)” value is on record as “no hygroscopicity”. The “solidification (in words)” value in the data set “Solidification test” is “no substantial solidification”. Moreover, in data set [1], the “Crystallinity (%)” value is on record as 82.6%.

With `OC[C@H]1O[C@H](O[C@H]2[C@H](O)[C@@H](O)[C@H](O)O[C@@H]2CO)[C@H](O)[C@@H](O)[C@@H]1O` [No. 10, anhydrous crystalline α-maltose], the “hygroscopicity (in words)” value in the data set “Hygroscopicity test” is “high hygroscopicity”. Besides, in the data set “Solidification test”, the “solidification (in words)” value was “heavy solidification”. For the same compound, in data set [1], the “Crystallinity (%)” value is reported as 76.3%. Further, the “preservation stability (in words)” value in data set [2] is “unsatisfactory preservation stability”.
